Assay results: US7622480B2, “Azaindolylpiperidine derivatives as antihistaminic and antiallergic agents” (Laboratorios Almirall S.A., priority 2002, dated 2009)

Columns and labels:
[1] = test system: Histamine-induced skin vascular permeability in rats; test: Histamine-induced skin vascular permeability in rats; format: in vivo; conditions: Rattus norvegicus, 4 h; Male Wistar rats, oral, dose of 3 mg/Kg, four hours after administration, compared with vehicle treated group
Experimental: Either one, four, eight or 24 hours later the rats were lightly anaesthetized with ether and a cutaneous reaction was induced by two intradermal injections of 50 μl of histamine (100 μg/ml) onto the back, followed by a intravenous injection of 3 ml/kg of Evan's Blue (5 mg/ml), both dissolved in saline. Sixty minutes later, the rats were killed by cervical dislocation and the back skin dissected free. The diameter (in millimetres) of the papule was measured in two directions and the area was calculated.

histamine H1 receptor = target: T1, histamine H1 receptor (Cavia porcellus, UniProt P31389); test: Histamine-H1 receptor binding assay; conditions: guinea pig cerebellum membranes, 0.7 nM [3H]-mepyramine, 30 min at 30° C.
T1 construct: performed in guinea pig cerebellum membranes as described previously; from tissue; host or cells: guinea pig cerebellum membranes
T1 sequence (P31389 whole entry): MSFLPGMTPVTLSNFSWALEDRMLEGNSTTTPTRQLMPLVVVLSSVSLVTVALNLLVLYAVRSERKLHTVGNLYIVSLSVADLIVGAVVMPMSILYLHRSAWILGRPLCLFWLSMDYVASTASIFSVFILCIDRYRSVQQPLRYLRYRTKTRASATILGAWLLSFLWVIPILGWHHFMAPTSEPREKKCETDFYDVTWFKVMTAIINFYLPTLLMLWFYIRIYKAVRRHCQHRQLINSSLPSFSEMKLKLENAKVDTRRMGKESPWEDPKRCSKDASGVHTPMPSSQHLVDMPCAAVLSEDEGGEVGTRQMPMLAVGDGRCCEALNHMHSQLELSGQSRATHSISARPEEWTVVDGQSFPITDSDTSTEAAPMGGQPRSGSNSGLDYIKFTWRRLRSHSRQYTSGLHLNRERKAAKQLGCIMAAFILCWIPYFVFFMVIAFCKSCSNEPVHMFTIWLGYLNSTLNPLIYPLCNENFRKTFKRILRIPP
Experimental: (1) In vitro histamine H1 receptor binding assay, to measure the affinity of the compounds. […] Briefly, the membrane suspensions (160 μg/ml) were incubated at 30° C. with 0.7 nM [^3H]-mepyramine and different concentrations of the test compounds in a final volume of 250 μl. Binding reactions were terminated by filtration after 30 min of incubation and the bound radioactivity was determined. The non-specific binding was measured in the presence of 10 μM of promethazine. The affinity of each test compound to the receptor was determined by using at least six different concentrations run in duplicate. IC50 values were obtained by non-linear regression by use of SAS on a DEC AXP computer.

For `O=C(O)c1ccc(Cl)cc1OCCN1CCC(c2cn(Cc3ccoc3)c3ncccc23)CC1` [Example 44, 4-chloro-2-{2-[4-(1-furan-3-ylmethyl-1H-pyrrolo[2,3-b]pyridin-3-yl)-piperidin-1-yl]-ethoxy}-benzoic acid], which inhibition in vivo at 3 mg/kg [1] is on record?
The inhibition in vivo at 3 mg/kg was greater than 50%.

What about the melting point of the same compound?
Its melting point is 81.6 to 83.3 °C.

What about the IC50 (histamine H1 receptor) of the same compound?
Its IC50 is 70 nM.

For `CCOCCn1cc(C2CCN(CCOc3cc(OC)ccc3C(=O)O)CC2)c2cccnc21` [Example 36, 2-(2-{4-[1-(2-ethoxyethyl)-1H-pyrrolo[2,3-b]pyridin-3-yl]-piperidin-1-yl}-ethoxy)-4-methoxybenzoic acid], which inhibition in vivo at 3 mg/kg [1] is on record?
Its inhibition in vivo at 3 mg/kg is greater than 50%.

What about the IC50 (histamine H1 receptor) of the same compound?
Its IC50 is 160 nM.

Which results are given for `COc1ccc(CN2CCC(c3cn(Cc4ccco4)c4ncccc34)CC2)cc1C(=O)O` [Example 10, 5-[4-(1-furan-2-ylmethyl-1H-pyrrolo[2,3-b]pyridin-3-yl)piperidin-1-ylmethyl]-2methoxy-benzoic acid]?
inhibition in vivo at 3 mg/kg [1]: > 50%; IC50 (histamine H1 receptor): 335 nM

What does the source list for `CCCCn1cc(C2CCN(CCOc3cc(OC)ccc3C(=O)O)CC2)c2cccnc21` [Example 61, 2-{2-[4-(1-butyl-1H-pyrrolo[2,3-b]pyridin-3-yl)piperidin-1-yl]-ethoxy}-4-methoxybenzoic acid]?
inhibition in vivo at 3 mg/kg [1]: > 50%; IC50 (histamine H1 receptor): 100 nM
